Experiments:
Assay in all cases: Competitive isoTOP-ABPP in situ (fragment-treated cells)
Format in all cases: cell-based
Conditions in all cases: 200 μM, insitu
[1] = biological target: T1, cysteines in MDA-MB-231 and Ramos cells (Homo sapiens, UniProt Q96AB3)
T1 sequence (Q96AB3 1-205): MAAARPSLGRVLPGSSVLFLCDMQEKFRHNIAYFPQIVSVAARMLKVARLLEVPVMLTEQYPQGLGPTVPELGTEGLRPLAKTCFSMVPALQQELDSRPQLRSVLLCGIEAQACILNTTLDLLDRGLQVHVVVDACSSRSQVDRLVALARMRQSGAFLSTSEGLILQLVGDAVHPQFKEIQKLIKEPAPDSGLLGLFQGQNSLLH

[2] = biological target: cysteines in MDA-MB-231 and Ramos cells (Homo sapiens, UniProt Q15021)
Chain of cysteines in MDA-MB-231 and Ramos cells (Homo sapiens, UniProt Q15021) (Q15021 whole entry): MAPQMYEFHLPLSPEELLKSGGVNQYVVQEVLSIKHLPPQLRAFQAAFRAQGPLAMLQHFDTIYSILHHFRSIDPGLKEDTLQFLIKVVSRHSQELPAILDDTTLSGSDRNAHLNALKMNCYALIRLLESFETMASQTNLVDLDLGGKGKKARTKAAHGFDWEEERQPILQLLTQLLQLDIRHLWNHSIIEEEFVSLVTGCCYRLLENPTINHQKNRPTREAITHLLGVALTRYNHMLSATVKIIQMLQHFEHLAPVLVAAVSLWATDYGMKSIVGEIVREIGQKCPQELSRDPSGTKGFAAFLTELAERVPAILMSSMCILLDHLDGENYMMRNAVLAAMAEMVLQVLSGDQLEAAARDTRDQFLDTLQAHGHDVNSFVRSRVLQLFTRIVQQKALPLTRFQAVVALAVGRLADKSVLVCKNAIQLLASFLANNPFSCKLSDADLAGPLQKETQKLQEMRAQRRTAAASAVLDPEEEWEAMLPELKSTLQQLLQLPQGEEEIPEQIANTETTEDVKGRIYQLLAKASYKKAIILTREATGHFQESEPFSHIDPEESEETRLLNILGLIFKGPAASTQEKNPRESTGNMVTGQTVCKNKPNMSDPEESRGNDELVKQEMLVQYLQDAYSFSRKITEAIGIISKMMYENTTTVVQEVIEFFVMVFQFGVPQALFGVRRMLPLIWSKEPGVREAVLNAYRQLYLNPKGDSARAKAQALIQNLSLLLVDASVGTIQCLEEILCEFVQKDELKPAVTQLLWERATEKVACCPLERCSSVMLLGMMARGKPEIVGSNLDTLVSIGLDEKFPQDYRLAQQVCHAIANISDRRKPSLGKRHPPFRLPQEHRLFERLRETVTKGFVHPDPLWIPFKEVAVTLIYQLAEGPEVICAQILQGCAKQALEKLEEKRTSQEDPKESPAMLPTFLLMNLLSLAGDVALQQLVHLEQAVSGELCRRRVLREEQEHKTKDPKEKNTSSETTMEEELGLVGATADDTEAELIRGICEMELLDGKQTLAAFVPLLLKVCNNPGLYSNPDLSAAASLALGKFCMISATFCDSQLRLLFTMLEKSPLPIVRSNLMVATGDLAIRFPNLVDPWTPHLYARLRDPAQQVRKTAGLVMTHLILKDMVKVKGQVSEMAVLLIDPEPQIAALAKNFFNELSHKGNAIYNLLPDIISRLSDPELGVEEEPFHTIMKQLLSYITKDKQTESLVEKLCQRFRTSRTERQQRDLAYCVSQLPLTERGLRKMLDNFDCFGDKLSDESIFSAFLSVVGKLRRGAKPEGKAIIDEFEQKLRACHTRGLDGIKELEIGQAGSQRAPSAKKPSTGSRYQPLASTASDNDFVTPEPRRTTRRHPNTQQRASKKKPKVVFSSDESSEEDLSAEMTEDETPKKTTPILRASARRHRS

[3] = biological target: T2, cysteines in MDA-MB-231 and Ramos cells (Homo sapiens, UniProt P30101)
T2 sequence (P30101 25-505): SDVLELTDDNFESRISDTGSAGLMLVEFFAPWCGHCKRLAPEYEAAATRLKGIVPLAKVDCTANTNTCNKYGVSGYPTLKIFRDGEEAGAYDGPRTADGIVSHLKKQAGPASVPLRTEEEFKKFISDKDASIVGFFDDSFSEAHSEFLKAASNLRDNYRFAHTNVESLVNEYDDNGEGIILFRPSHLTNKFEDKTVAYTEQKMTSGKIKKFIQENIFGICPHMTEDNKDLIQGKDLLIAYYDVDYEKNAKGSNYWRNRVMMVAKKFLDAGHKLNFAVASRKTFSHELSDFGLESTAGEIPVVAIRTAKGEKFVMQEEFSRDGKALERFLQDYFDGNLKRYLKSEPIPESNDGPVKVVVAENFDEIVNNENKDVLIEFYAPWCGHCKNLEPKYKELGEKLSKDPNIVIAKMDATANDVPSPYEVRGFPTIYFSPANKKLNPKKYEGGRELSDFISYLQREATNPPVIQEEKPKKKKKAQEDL

[4] = biological target: T3, cysteines in MDA-MB-231 and Ramos cells (Homo sapiens, UniProt P13667)
T3 sequence (P13667 21-645): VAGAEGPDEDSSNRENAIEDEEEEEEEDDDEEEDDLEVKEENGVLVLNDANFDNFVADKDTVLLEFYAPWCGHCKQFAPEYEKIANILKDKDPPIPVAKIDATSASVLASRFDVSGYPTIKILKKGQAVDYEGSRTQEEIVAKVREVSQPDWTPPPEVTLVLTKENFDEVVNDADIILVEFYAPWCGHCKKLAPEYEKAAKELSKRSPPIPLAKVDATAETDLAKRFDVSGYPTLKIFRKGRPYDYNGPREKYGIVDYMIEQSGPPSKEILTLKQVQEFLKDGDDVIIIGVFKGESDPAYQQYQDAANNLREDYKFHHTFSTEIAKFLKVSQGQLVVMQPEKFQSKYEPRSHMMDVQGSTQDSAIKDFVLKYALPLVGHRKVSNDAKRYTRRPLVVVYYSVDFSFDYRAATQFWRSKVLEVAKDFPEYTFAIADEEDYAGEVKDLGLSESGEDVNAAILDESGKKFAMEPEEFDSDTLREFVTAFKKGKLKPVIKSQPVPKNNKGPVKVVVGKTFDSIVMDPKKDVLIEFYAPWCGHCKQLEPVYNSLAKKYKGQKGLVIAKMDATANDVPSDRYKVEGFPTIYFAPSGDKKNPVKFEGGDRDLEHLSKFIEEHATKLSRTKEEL

[5] = biological target: T4, cysteines in MDA-MB-231 and Ramos cells (Homo sapiens, UniProt Q9BVC5)
T4 sequence (Q9BVC5 1-232): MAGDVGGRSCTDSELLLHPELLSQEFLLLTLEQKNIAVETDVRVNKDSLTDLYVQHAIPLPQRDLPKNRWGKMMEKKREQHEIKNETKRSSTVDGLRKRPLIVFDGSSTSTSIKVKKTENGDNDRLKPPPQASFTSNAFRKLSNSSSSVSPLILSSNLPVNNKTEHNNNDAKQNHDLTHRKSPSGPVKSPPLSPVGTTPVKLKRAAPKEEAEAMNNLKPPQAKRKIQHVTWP

[6] = biological target: T5, cysteines in MDA-MB-231 and Ramos cells (Homo sapiens, UniProt Q9BTA9)
T5 sequence (Q9BTA9 1-647): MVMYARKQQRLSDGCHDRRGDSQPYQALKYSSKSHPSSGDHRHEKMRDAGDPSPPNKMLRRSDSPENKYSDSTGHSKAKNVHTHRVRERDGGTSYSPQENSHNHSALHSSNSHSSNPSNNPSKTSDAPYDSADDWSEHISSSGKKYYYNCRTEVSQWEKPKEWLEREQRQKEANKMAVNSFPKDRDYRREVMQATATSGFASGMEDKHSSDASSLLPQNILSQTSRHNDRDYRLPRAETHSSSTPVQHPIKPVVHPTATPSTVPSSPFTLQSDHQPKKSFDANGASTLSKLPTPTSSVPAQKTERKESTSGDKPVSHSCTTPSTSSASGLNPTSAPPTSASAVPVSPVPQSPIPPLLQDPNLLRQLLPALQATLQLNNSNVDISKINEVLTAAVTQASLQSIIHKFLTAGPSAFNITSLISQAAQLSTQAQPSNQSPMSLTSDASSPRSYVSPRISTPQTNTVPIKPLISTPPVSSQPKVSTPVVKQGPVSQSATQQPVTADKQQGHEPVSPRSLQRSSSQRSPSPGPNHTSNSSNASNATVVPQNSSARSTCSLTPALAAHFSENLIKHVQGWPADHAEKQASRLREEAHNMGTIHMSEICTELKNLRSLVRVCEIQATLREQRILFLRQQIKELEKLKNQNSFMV

[7] = biological target: T6, cysteines in MDA-MB-231 and Ramos cells (Homo sapiens, UniProt Q13418)
T6 sequence (Q13418 1-452): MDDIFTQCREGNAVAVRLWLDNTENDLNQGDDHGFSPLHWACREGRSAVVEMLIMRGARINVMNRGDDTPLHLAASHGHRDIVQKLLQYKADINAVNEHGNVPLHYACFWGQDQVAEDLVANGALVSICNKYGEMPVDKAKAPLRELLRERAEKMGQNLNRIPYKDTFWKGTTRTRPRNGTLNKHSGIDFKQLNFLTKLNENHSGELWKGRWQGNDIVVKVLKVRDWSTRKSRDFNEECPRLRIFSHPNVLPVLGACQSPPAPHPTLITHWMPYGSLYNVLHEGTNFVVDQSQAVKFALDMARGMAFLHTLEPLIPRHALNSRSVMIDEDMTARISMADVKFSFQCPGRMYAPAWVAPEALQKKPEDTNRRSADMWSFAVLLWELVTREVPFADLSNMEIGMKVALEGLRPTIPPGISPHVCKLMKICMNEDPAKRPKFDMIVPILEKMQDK

| isoTOP-ABPP ratio Q96AB3_C114 [1]; 231 | isoTOP-ABPP ratio Q15021_C439 [2]; 231 | isoTOP-ABPP ratio P30101_C57 [3]; 231 | isoTOP-ABPP ratio P13667_C206 [4]; 231 | isoTOP-ABPP ratio Q9BVC5_C10 [5]; 231 | isoTOP-ABPP ratio P30101_C406 [3]; 231 | isoTOP-ABPP ratio Q9BTA9_C553 [6]; 231 | isoTOP-ABPP ratio P13667_C555 [4]; 231 | isoTOP-ABPP ratio Q13418_C346 [7]; 231 | isoTOP-ABPP ratio P30101_C406 ([3]; ramos) | isoTOP-ABPP ratio P13667_C555 ([4]; ramos) | Structure (SMILES) | further results |
| --- | --- | --- | --- | --- | --- | --- | --- | --- | --- | --- | --- | --- |
| 0.8 | 0.9 | 1.6 | 1.3 | 0.9 | – | – | – | – | – | – | COc1ccccc1OCCNC(=O)CCl [compound 28] | – |
| 3.1 | – | 2.6 | 1.9 | 3.4 | 2.6 | 19.1 | 2.6 | – | – | – | CC1CCc2ccccc2N1C(=O)CCl (stereo not drawn) [compound 45] | – |
| 0.8 | 1.1 | – | 5.3 | 1.0 | 6.0 | 1.2 | 6.0 | 0.8 | – | – | O=C(CCl)Nc1cccc2ncccc12 [compound 51] | – |
| – | – | – | – | – | – | – | – | – | – | – | COc1cc2c(cc1OC)CN(C(=O)CCl)CC2 [compound 8] | isoTOP-ABPP reactivity Q96AB3_C114 ISOC2 [1]; 231: 4.7; isoTOP-ABPP reactivity Q15021_C439 NCAPD2 [2]; 231: 0.6; isoTOP-ABPP reactivity P30101_057 PDIA3 [3]; 231: 20.0; isoTOP-ABPP reactivity P30101_C406 PDIA3 [3]; 231: 20.0; isoTOP-ABPP reactivity Q9BTA9_0553 WAC [6]; 231: 9.6; isoTOP-ABPP reactivity P13667_C206 PDIA4 [4]; 231: 15.2; isoTOP-ABPP reactivity P13667_C555 PDIA4 [4]; 231: 20.0; isoTOP-ABPP reactivity Q9BVC5_C10 C2orf49 [5]; 231: 4.5 |
| 0.7 | 20.0 | 0.9 | 0.8 | – | 0.8 | – | 0.8 | 0.6 | 1.1 | 1.1 | C=CC(=O)N(Cc1cccnc1)c1cc(C(F)(F)F)cc(C(F)(F)F)c1 [compound 31] | isoTOP-ABPP ratio P13667_C206 ([4]; ramos): 1.1 |
| 2.4 | – | – | 1.1 | 1.6 | – | 1.4 | – | 0.7 | 2.0 | 2.0 | O=C(CCl)NCCc1c[nH]c2ccccc12 [compound 13] | isoTOP-ABPP ratio Q13418_C346 ([7]; ramos): 2.1; isoTOP-ABPP ratio P30101_C57 ([3]; ramos): 1.6 |
| – | – | – | – | – | – | – | – | – | – | – | O=C(CCl)N1CCC(Cc2ccccc2)CC1 [compound 9] | isoTOP-ABPP reactivity Q13418_C346 ILK [7]; 231: 2.7; isoTOP-ABPP reactivity Q15021_C439 NCAPD2 [2]; 231: 6.1; isoTOP-ABPP reactivity P30101_C406 PDIA3 [3]; 231: 1.4; isoTOP-ABPP reactivity P13667_C206 PDIA4 [4]; 231: 1.1; isoTOP-ABPP reactivity P13667_C555 PDIA4 [4]; 231: 1.4 |
| – | – | – | – | – | – | – | – | – | 1.5 | 1.5 | O=C(CCl)N1CCN(CC(=O)N2CCOCC2)CC1 [compound 29] | isoTOP-ABPP ratio Q96AB3_C114 ([1]; ramos): 1.1; isoTOP-ABPP ratio Q15021_C439 ([2]; ramos): 1.4; isoTOP-ABPP ratio P30101_C57 ([3]; ramos): 1.2; isoTOP-ABPP ratio Q9BTA9_C553 ([6]; ramos): 1.1; isoTOP-ABPP ratio P13667_C206 ([4]; ramos): 1.4; isoTOP-ABPP ratio Q9BVC5_C10 ([5]; ramos): 1.8 |
